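Five compound concentrations were applied to cells in 96-well plates for 48 hours; endpoints were derived by simple linear interpolation of the resulting dose-response curve. Here, GI50 denotes the concentration required for 50% inhibition of growth. TGI marks complete inhibition of growth.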
Experiments:
Experiment in all cases: DTP human tumour cell line panel, 48 h
[1] = system: 786-0 renal
[2] = system: A498 renal
[3] = system: A549 NSCLC
[4] = system: ACHN renal
[5] = system: BT-549 breast
[6] = system: CAKI-1 renal
[7] = system: CCRF-CEM leukemia
[8] = system: COLO 205 colon
[9] = system: DU-145 prostate
[10] = system: EKVX NSCLC
[11] = system: HCC-2998 colon
[12] = system: HCT-116 colon
[13] = system: HCT-15 colon
[14] = system: HL-60(TB) leukemia
[15] = system: HOP-62 NSCLC
[16] = system: HOP-92 NSCLC
[17] = system: HS 578T breast
[18] = system: HT29 colon
[19] = system: IGROV1 ovarian
[20] = system: K-562 leukemia
[21] = system: KM12 colon
[22] = system: LOX IMVI melanoma
[23] = system: MALME-3M melanoma
[24] = system: MCF7 breast
[25] = system: MDA-MB-231 breast
[26] = system: MDA-MB-435
[27] = system: MOLT-4 leukemia
[28] = system: NCI-H226 lung

`CCOC(=O)c1c(NC(=O)COc2cccc3cccnc23)sc(C(=O)N(C)C)c1C` showed a GI50 [1] of 20.7 µM, a TGI [1] of 79.7 µM and a GI50 [2] of 26.6 µM. It also gave a TGI [2] of 66.7 µM, a GI50 [3] of 18.5 µM and a TGI [3] of 46.2 µM. The GI50 [4] was 24.1 µM, the TGI [4] was 75.5 µM and the GI50 [5] was 14.1 µM. For the same compound, the TGI [5] was 32.4 µM, the GI50 [6] was 20.7 µM and the TGI [6] was 77.6 µM. For the same compound, the GI50 [7] was 14.1 µM, the TGI [7] was 82.3 µM and the GI50 [8] was 17.4 µM. It also gave a TGI [8] of 55.5 µM, a GI50 [9] of 18.5 µM and a TGI [9] of 39.2 µM. For the same compound, the GI50 [10] was 23 µM, the TGI [10] was 61 µM and the GI50 [11] was 17.2 µM. For the same compound, the TGI [11] was 35.2 µM, the GI50 [12] was 14.6 µM and the TGI [12] was 45.6 µM. For the same compound, the GI50 [13] was 18.5 µM, the TGI [13] was 48.5 µM and the GI50 [14] was 18.1 µM. It also gave a TGI [14] of 39.9 µM, a GI50 [15] of 19.6 µM and a TGI [15] of 58 µM. The GI50 [16] was 14.2 µM, the TGI [16] was 55.1 µM and the GI50 [17] was 15.5 µM. For the same compound, the TGI [17] was 44.6 µM, the GI50 [18] was 25.4 µM and the TGI [18] was 61.6 µM. The GI50 [19] was 16.7 µM, the TGI [19] was 49.2 µM and the GI50 [20] was 19.7 µM. The TGI [20] was 48.9 µM, the GI50 [21] was 15.7 µM and the TGI [21] was 35.3 µM. It also gave a GI50 [22] of 22 µM, a TGI [22] of 55.1 µM and a GI50 [23] of 20.1 µM. For the same compound, the TGI [23] was 46.6 µM, the GI50 [24] was 19 µM and the TGI [24] was 42.5 µM. For the same compound, the GI50 [25] was 23.7 µM, the TGI [25] was > 100 µM and the GI50 [26] was 16.1 µM. The TGI [26] was 31.5 µM, the GI50 [27] was 16.4 µM and the TGI [27] was 44.3 µM. It also gave a GI50 [28] of 17.9 µM and a TGI [28] of 50.1 µM.

Reference: PubChem BioAssay (NCI)
